Data as given in the OPERA property sets (Mansouri et al. 2018).

SMILES | logP
CCCOP(=S)(OCCC)SCC(=O)N1CCCCC1C (stereo not drawn) | 4.04
Cc1ccc(S(=O)(=O)Oc2c(C(=O)c3ccc(Cl)cc3Cl)c(C)nn2C)cc1 | 3.9
CCO/N=C(\OC(=O)c1ccccc1)c1c(OC)ccc(Cl)c1OC | 3.73
CC(C)OP(=O)(OC(C)C)SCc1ccccc1 | 3.34
CCOP(=S)(OCC)Oc1cc(-c2ccccc2)on1 | 3.73
CC(C)OC(=O)C(C(=O)OC(C)C)=C1SCCS1 | 2.88
Clc1nc(Cl)nc(Nc2ccccc2Cl)n1 | 3.88
OC(c1ccc(Cl)cc1)(c1ccc(Cl)cc1)C(Cl)(Cl)Cl | 5.02
CC(C)N1C(=O)c2ccccc2NS1(=O)=O | 2.34
CC12CC1(C)C(=O)N(c1cc(Cl)cc(Cl)c1)C2=O (stereo not drawn) | 3.08
C#CCOS(=O)OC1CCCCC1Oc1ccc(C(C)(C)C)cc1 (stereo not drawn) | 5
O=C(NC(=O)c1c(F)cccc1F)Nc1cc(Cl)c(F)c(Cl)c1F | 4.56
CCOP(=O)(Sc1ccccc1)Sc1ccccc1 | 3.48
